Test results as given in patent US10131652B2, “Pyrimidinyloxy benzene derivatives as herbicides” (E. I. DU PONT DE NEMOURS AND COMPANY, priority 2014, dated 2018).

Tests used:
Experiment in all cases: Test D pre-/postemergence plant response
Format in all cases: in vivo
[1] = system: large (Lg) crabgrass (Digitaria sanguinalis); details: Preemergence; 62 g ai/ha; scale 0 to 100 (0 no effect, 100 complete control)
In short: (§1)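 Visual rating, 0–100 scale (0 = no effect, 100 = complete control), versus untreated controls 13 to 15 days after treatment in greenhouse. Preemergence: seeds in loam/sand soil. Postemergence: 2 to 18 cm plants, 1- to 4-leaf stage, peat-based medium. Compounds formulated in non-phytotoxic solvent plus surfactant.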

[2] = system: morningglory (Ipomoea coccinea)
In short: as §1

[3] = system: oilseed rape (Brassica napus)
In short: as §1

[4] = system: pigweed (Amaranthus retroflexus)
In short: as §1

[5] = system: ragweed (common ragweed, Ambrosia elatior)
In short: as §1

soybean (Glycine max) = system: soybean (Glycine max)
In short: as §1

[6] = system: velvetleaf (Abutilon theophrasti)
In short: as §1

[7] = system: waterhemp (common waterhemp, Amaranthus rudis)
In short: as §1

[8] = system: winter wheat (Triticum aestivum)
In short: as §1

[9] = system: yellow nutsedge (Cyperus esculentus)
In short: as §1

[10] = Postemergence, 31 g ai/ha, scale 0 to 100 (0 no effect, 100 complete control)
[11] = Postemergence, 62 g ai/ha, scale 0 to 100, 0 no effect, 100 complete control
[12] = Postemergence, 125 g ai/ha, scale 0 to 100, 0 no effect, 100 complete control
[13] = Preemergence, 16 g ai/ha, scale 0 to 100 (0 no effect, 100 complete control)
[14] = Preemergence, 31 g ai/ha, scale 0 to 100 (0 no effect, 100 complete control)
[15] = Preemergence, 62 g ai/ha, scale 0 to 100 (0 no effect, 100 complete control)

**Q.** FC(F)c1cc(-c2c(Cl)cccc2Oc2ncc(Cl)cn2)no1 [Compound 179] was tested. Which “Plant response rating, Crabgrass, Large” value [1] did it give?
**A.** 75

**Q.** And the “Plant response rating (scale 0 to 100), Morningglory” value ([2]; Postemergence, 16 g ai/ha)?
**A.** 30

**Q.** What about the “Morningglory plant response rating” value [2, 10] of the same compound?
**A.** 65

**Q.** And the “Morningglory plant response rating” value [2, 11]?
**A.** 85

**Q.** And the “Plant response rating, Morningglory” value [2, 12]?
**A.** 90

**Q.** And the “Plant response rating (scale 0 to 100), Morningglory” value ([2]; Preemergence, 125 g ai/ha)?
**A.** 15

**Q.** What about the “Plant response rating, Morningglory” value [2, 13] of the same compound?
**A.** 0

**Q.** And the “Plant response rating, Morningglory” value [2, 14]?
**A.** 0

**Q.** And the “Plant response rating, Morningglory” value [2, 15]?
**A.** 0

**Q.** And the “Plant response rating (scale 0 to 100), Oilseed Rape” value ([3]; Postemergence, 16 g ai/ha)?
**A.** 40

**Q.** And the “Oilseed Rape plant response rating” value [3, 10]?
**A.** 75

**Q.** And the “Oilseed Rape plant response rating” value [3, 11]?
**A.** 85

**Q.** And the “Plant response rating, Oilseed Rape” value [3, 12]?
**A.** 100

**Q.** What about the “Plant response rating (scale 0 to 100), Oilseed Rape” value ([3]; Preemergence, 125 g ai/ha) of the same compound?
**A.** 100

**Q.** And the “Plant response rating, Oilseed Rape” value [3, 13]?
**A.** 30

**Q.** What about the “Plant response rating, Oilseed Rape” value [3, 14] of the same compound?
**A.** 95

**Q.** And the “Plant response rating (scale 0 to 100), Pigweed” value ([4]; Postemergence, 16 g ai/ha)?
**A.** 80

**Q.** And the “Pigweed plant response rating” value [4, 10]?
**A.** 90

**Q.** And the “Pigweed plant response rating” value [4, 11]?
**A.** 98

**Q.** And the “Plant response rating, Pigweed” value [4, 12]?
**A.** 98

**Q.** And the “Plant response rating (scale 0 to 100), Pigweed” value ([4]; Preemergence, 125 g ai/ha)?
**A.** 100

**Q.** And the “Plant response rating, Pigweed” value [4, 13]?
**A.** 30

**Q.** And the “Plant response rating, Pigweed” value [4, 14]?
**A.** 100

**Q.** What about the “Plant response rating, Pigweed” value [4, 15] of the same compound?
**A.** 100

**Q.** And the “Plant response rating (scale 0 to 100), Ragweed” value ([5]; Postemergence, 16 g ai/ha)?
**A.** 30

**Q.** And the “Ragweed plant response rating” value [5, 10]?
**A.** 25

**Q.** What about the “Ragweed plant response rating” value [5, 11] of the same compound?
**A.** 50

**Q.** And the “Plant response rating, Ragweed” value [5, 12]?
**A.** 60

**Q.** And the “Plant response rating (scale 0 to 100), Ragweed” value ([5]; Preemergence, 125 g ai/ha)?
**A.** 60

**Q.** What about the “Plant response rating, Ragweed” value [5, 13] of the same compound?
**A.** 25

**Q.** And the “Plant response rating, Ragweed” value [5, 14]?
**A.** 30

**Q.** And the “Plant response rating, Ragweed” value [5, 15]?
**A.** 40

**Q.** What about the “Plant response rating (scale 0 to 100), Soybean” value (soybean (Glycine max); Postemergence, 16 g ai/ha) of the same compound?
**A.** 25

**Q.** What about the “Soybean plant response rating” value (soybean (Glycine max); [10]) of the same compound?
**A.** 45

**Q.** What about the “Soybean plant response rating” value (soybean (Glycine max); [11]) of the same compound?
**A.** 70

**Q.** And the “Plant response rating, Soybean” value (soybean (Glycine max); [12])?
**A.** 70

**Q.** What about the “Plant response rating (scale 0 to 100), Soybean” value (soybean (Glycine max); Preemergence, 125 g ai/ha) of the same compound?
**A.** 45

**Q.** And the “Plant response rating, Soybean” value (soybean (Glycine max); [13])?
**A.** 0

**Q.** What about the “Plant response rating, Soybean” value (soybean (Glycine max); [14]) of the same compound?
**A.** 0

**Q.** And the “Plant response rating, Soybean” value (soybean (Glycine max); [15])?
**A.** 30

**Q.** What about the “Plant response rating (scale 0 to 100), Velvetleaf” value ([6]; Postemergence, 16 g ai/ha) of the same compound?
**A.** 15

**Q.** And the “Velvetleaf plant response rating” value [6, 10]?
**A.** 20

**Q.** What about the “Velvetleaf plant response rating” value [6, 11] of the same compound?
**A.** 30

**Q.** What about the “Plant response rating, Velvetleaf” value [6, 12] of the same compound?
**A.** 70

**Q.** What about the “Plant response rating (scale 0 to 100), Velvetleaf” value ([6]; Preemergence, 125 g ai/ha) of the same compound?
**A.** 100

**Q.** And the “Plant response rating, Velvetleaf” value [6, 13]?
**A.** 15

**Q.** What about the “Plant response rating, Velvetleaf” value [6, 14] of the same compound?
**A.** 65

**Q.** And the “Plant response rating, Velvetleaf” value [6, 15]?
**A.** 85

**Q.** What about the “Plant response rating (scale 0 to 100), Waterhemp” value ([7]; Postemergence, 16 g ai/ha) of the same compound?
**A.** 60

**Q.** What about the “Waterhemp plant response rating” value [7, 10] of the same compound?
**A.** 90

**Q.** What about the “Waterhemp plant response rating” value [7, 11] of the same compound?
**A.** 95

**Q.** What about the “Plant response rating, Waterhemp” value [7, 12] of the same compound?
**A.** 98

**Q.** What about the “Plant response rating (scale 0 to 100), Waterhemp” value ([7]; Preemergence, 125 g ai/ha) of the same compound?
**A.** 100

**Q.** And the “Plant response rating, Waterhemp” value [7, 13]?
**A.** 75

**Q.** What about the “Plant response rating, Waterhemp” value [7, 14] of the same compound?
**A.** 90

**Q.** What about the “Plant response rating, Waterhemp” value [7, 15] of the same compound?
**A.** 90

**Q.** What about the “Plant response rating (scale 0 to 100), Wheat” value ([8]; Postemergence, 16 g ai/ha) of the same compound?
**A.** 5

**Q.** What about the “Wheat plant response rating” value [8, 10] of the same compound?
**A.** 10

**Q.** And the “Wheat plant response rating” value [8, 11]?
**A.** 30

**Q.** What about the “Plant response rating, Wheat” value [8, 12] of the same compound?
**A.** 35

**Q.** What about the “Plant response rating (scale 0 to 100), Wheat” value ([8]; Preemergence, 125 g ai/ha) of the same compound?
**A.** 35

**Q.** And the “Plant response rating, Wheat” value [8, 13]?
**A.** 0

**Q.** What about the “Plant response rating, Wheat” value [8, 14] of the same compound?
**A.** 0

**Q.** What about the “Plant response rating, Wheat” value [8, 15] of the same compound?
**A.** 0

**Q.** What about the “Plant response rating (scale 0 to 100), Nutsedge, Yellow” value ([9]; Postemergence, 16 g ai/ha) of the same compound?
**A.** 5

**Q.** And the “Nutsedge, Yellow plant response rating” value [9, 10]?
**A.** 5

**Q.** And the “Nutsedge, Yellow plant response rating” value [9, 11]?
**A.** 5

**Q.** What about the “Plant response rating, Nutsedge, Yellow” value [9, 12] of the same compound?
**A.** 5

**Q.** What about the “Plant response rating (scale 0 to 100), Nutsedge, Yellow” value ([9]; Preemergence, 125 g ai/ha) of the same compound?
**A.** 25

**Q.** What about the “Plant response rating, Nutsedge, Yellow” value [9, 13] of the same compound?
**A.** 0

**Q.** And the “Plant response rating, Nutsedge, Yellow” value [9, 14]?
**A.** 0

**Q.** And the “Plant response rating, Nutsedge, Yellow” value [9, 15]?
**A.** 0
